Experimental data from patent US10927123B2, “Modulators of the beta-3 adrenergic receptor useful for the treatment or prevention of disorders related thereto” (Arena Pharmaceuticals, Inc., priority 2016, dated 2021).

Molecular target: Beta-3 Adrenergic Receptor (Homo sapiens (Human), UniProt P13945)
Assay: HTRF cAMP antagonist assay (IC50 determination)
Format: cell-based
Conditions: CHO-K1 cells stably expressing recombinant receptor; antagonism of isoproterenol at EC90; cAMP readout
Method in brief: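 CHO-K1 cells stably expressing the recombinant receptor were preincubated with compound (10-point, 5-fold dilutions; top final typically 10 or 100 μM) in PBS with 1 mM IBMX, then stimulated with isoproterenol at its EC90 for 1 h at room temperature. cAMP was read by HTRF against an on-plate standard curve.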

Sequence of Beta-3 Adrenergic Receptor (P13945 whole entry, species assumed): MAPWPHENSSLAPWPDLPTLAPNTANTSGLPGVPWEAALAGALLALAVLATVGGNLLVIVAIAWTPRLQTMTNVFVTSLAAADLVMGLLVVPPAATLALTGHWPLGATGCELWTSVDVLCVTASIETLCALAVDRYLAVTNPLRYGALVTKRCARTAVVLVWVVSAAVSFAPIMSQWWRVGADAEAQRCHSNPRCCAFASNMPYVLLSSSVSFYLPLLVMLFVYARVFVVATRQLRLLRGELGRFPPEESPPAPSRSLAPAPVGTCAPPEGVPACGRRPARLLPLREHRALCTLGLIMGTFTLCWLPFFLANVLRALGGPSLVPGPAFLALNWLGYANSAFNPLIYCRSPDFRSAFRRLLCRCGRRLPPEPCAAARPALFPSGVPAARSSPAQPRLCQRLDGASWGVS

Row | SMILES | IC50 [nM]
1 | O=S(=O)(c1cnc2c(c1)CCCO2)N1CCC2(CC1)C[C@@H](NC[C@H](O)COc1cccc(S(=O)(=O)C3(CO)CC3)c1)CO2 [Compound 284, (S)-1-((R)-8-(3,4-dihydro-2H-pyrano[2,3-b]pyridin-6-ylsulfonyl)-1-oxa-8-azaspiro[4.5]decan-3-ylamino)-3-(3-(1-(hydroxymethyl)cyclopropylsulfonyl)phenoxy)propan-2-ol] | 106
2 | O=S(=O)(c1cnc2c(c1)OCCO2)N1CCC2(CC1)C[C@@H](NC[C@H](O)COc1cccc(S(=O)(=O)C3(CO)CC3)c1)CO2 [Compound 285, (S)-1-((R)-8-(2,3-dihydro-[1,4]dioxino[2,3-b]pyridin-7-ylsulfonyl)-1-oxa-8-azaspiro[4.5]decan-3-ylamino)-3-(3-(1-(hydroxymethyl)cyclopropylsulfonyl)phenoxy)propan-2-ol] | 303
3 | CN1CCOc2cc(S(=O)(=O)N3CCC4(CC3)C[C@@H](NC[C@H](O)COc3cccc(S(=O)(=O)C5(CO)CC5)c3)CO4)cnc21 [Compound 286, (S)-1-(3-(1-(hydroxymethyl)cyclopropylsulfonyl)phenoxy)-3-((R)-8-(4-methyl-3,4-dihydro-2H-pyrido[3,2-b][1,4]oxazin-7-ylsulfonyl)-1-oxa-8-azaspiro[4.5]decan-3-ylamino)propan-2-ol] | 56.9
4 | Cn1cnc2ccc(S(=O)(=O)N3CCC4(CC3)C[C@@H](NC[C@H](O)COc3cccc(S(=O)(=O)C5(CO)CC5)c3)CO4)nc21 [Compound 287, (S)-1-(3-(1-(hydroxymethyl)cyclopropylsulfonyl)phenoxy)-3-((R)-8-(3-methyl-3H-imidazo[4,5-b]pyridin-5-ylsulfonyl)-1-oxa-8-azaspiro[4.5]decan-3-ylamino)propan-2-ol] | 151
5 | CN1CC(C)(C)Oc2nc(S(=O)(=O)N3CCC4(CC3)C[C@@H](NC[C@H](O)COc3cccc(S(=O)(=O)C5(CO)CC5)c3)CO4)ccc21 [Compound 288, (S)-1-(3-(1-(hydroxymethyl)cyclopropylsulfonyl)phenoxy)-3-((R)-8-(1,3,3-trimethyl-2,3-dihydro-1H-pyrido[2,3-b][1,4]oxazin-6-ylsulfonyl)-1-oxa-8-azaspiro[4.5]decan-3-ylamino)propan-2-ol] | 177
6 | O=S(=O)(c1cccc(OC[C@@H](O)CN[C@H]2COC3(CCN(S(=O)(=O)c4cnc5c(c4)OCCO5)CC3)C2)c1)C1CC1 [Compound 289, (S)-1-(3-(cyclopropylsulfonyl)phenoxy)-3-((R)-8-(2,3-dihydro-[1,4]dioxino[2,3-b]pyridin-7-ylsulfonyl)-1-oxa-8-azaspiro[4.5]decan-3-ylamino)propan-2-ol] | 65.8
7 | CN1CCOc2cc(S(=O)(=O)N3CCC4(CC3)C[C@@H](NC[C@H](O)COc3cccc(S(=O)(=O)C5CC5)c3)CO4)cnc21 [Compound 290, (S)-1-(3-(cyclopropylsulfonyl)phenoxy)-3-((R)-8-(4-methyl-3,4-dihydro-2H-pyrido[3,2-b][1,4]oxazin-7-ylsulfonyl)-1-oxa-8-azaspiro[4.5]decan-3-ylamino)propan-2-ol] | 34.2
8 | O=S(=O)(c1cccc(OC[C@@H](O)CN[C@H]2COC3(CCN(S(=O)(=O)c4cnc5c(c4)CCCO5)CC3)C2)c1)C1CC1 [Compound 291, (5)-1-(3-(cyclopropylsulfonyl)phenoxy)-3-((R)-8-(3,4-dihydro-2H-pyrano[2,3-b]pyridin-6-ylsulfonyl)-1-oxa-8-azaspiro[4.5]decan-3-ylamino)propan-2-ol] | 69.8
9 | CCn1cc(S(=O)(=O)N2CCC3(CC2)C[C@@H](NC[C@H](O)COc2cccc(S(=O)(=O)C4(CO)CC4)c2)CO3)c(=O)c2ccccc21 [Compound 292, 1-ethyl-3-((R)-3-((S)-2-hydroxy-3-(3-(1-(hydroxymethyl)cyclopropylsulfonyl)phenoxy)propylamino)-1-oxa-8-azaspiro[4.5]decan-8-ylsulfonyl)quinolin-4(1H)-one] | 90.2
10 | CCn1cc(S(=O)(=O)N2CCC3(CC2)C[C@H](NC[C@H](O)COc2cccc(S(=O)(=O)C4(CO)CC4)c2)CO3)c(=O)c2ccccc21 [Compound 293, 1-ethyl-3-((S)-3-((S)-2-hydroxy-3-(3-(1-(hydroxymethyl)cyclopropylsulfonyl)phenoxy)propylamino)-1-oxa-8-azaspiro[4.5]decan-8-ylsulfonyl)quinolin-4(1H)-one] | 130
11 | CCn1cc(S(=O)(=O)N2CCC3(CC2)C[C@@H](NC[C@H](O)COc2cccc(S(=O)(=O)C(C)(C)CO)c2)CO3)c(=O)c2ccccc21 [Compound 294, 1-ethyl-3-((R)-3-((S)-2-hydroxy-3-(3-(1-hydroxy-2-methylpropan-2-ylsulfonyl)phenoxy)propylamino)-1-oxa-8-azaspiro[4.5]decan-8-ylsulfonyl)quinolin-4(1H)-one] | 110
12 | Cn1cc(S(=O)(=O)N2CCC3(CC2)C[C@@H](NC[C@H](O)COc2cccc(S(=O)(=O)C4(CO)CC4)c2)CO3)c(=O)c2ccccc21 [Compound 295, 3-((R)-3-((S)-2-hydroxy-3-(3-(1-(hydroxymethyl)cyclopropylsulfonyl)phenoxy)propylamino)-1-oxa-8-azaspiro[4.5]decan-8-ylsulfonyl)-1-methylquinolin-4(1H)-one] | 143
13 | CCn1cc(S(=O)(=O)N2CCC3(CC2)C[C@H](NC[C@@H](O)COc2cccc(S(C)(=O)=O)c2)CO3)c(=O)c2ccccc21 [Compound 296, 1-ethyl-3-((S)-3-((R)-2-hydroxy-3-(3-(methylsulfonyl)phenoxy)propylamino)-1-oxa-8-azaspiro[4.5]decan-8-ylsulfonyl)quinolin-4(1H)-one] | 107
14 | CCn1cc(S(=O)(=O)N2CCC3(CC2)C[C@@H](NC[C@H](O)COc2cccc(S(=O)(=O)C4CC4)c2)CO3)c(=O)c2ccccc21 [Compound 297, 3-((R)-3-((S)-3-(3-(cyclopropylsulfonyl)phenoxy)-2-hydroxypropylamino)-1-oxa-8-azaspiro[4.5]decan-8-ylsulfonyl)-1-ethylquinolin-4(1H)-one] | 26.5
15 | CCn1cc(S(=O)(=O)N2CCC3(CC2)C[C@@H](NC[C@H](O)COc2cccc(S(=O)(=O)C(F)(F)CO)c2)CO3)c(=O)c2ccccc21 [Compound 298, 3-((R)-3-((S)-3-(3-(1,1-difluoro-2-hydroxyethylsulfonyl)phenoxy)-2-hydroxypropylamino)-1-oxa-8-azaspiro[4.5]decan-8-ylsulfonyl)-1-ethylquinolin-4(1H)-one] | 82.5
16 | CCn1cc(S(=O)(=O)N2CCC3(CC2)C[C@@H](NC[C@H](O)COc2cccc(S(=O)(=O)C(C)F)c2)CO3)c(=O)c2ccccc21 (stereo partly drawn) [Compound 299, 1-ethyl-3-((3R)-3-((2S)-3-(3-(1-fluoroethylsulfonyl)phenoxy)-2-hydroxypropylamino)-1-oxa-8-azaspiro[4.5]decan-8-ylsulfonyl)quinolin-4(1H)-one] | 44.3
17 | O=S(=O)(c1ccc2ccccc2c1)N1CCC2(CC1)C[C@@H](NC[C@H](O)COc1cccc(S(=O)(=O)C3(CO)CC3)c1)CO2 [Compound 300, (S)-1-(3-(1-(hydroxymethyl)cyclopropylsulfonyl)phenoxy)-3-((R)-8-(naphthalen-2-ylsulfonyl)-1-oxa-8-azaspiro[4.5]decan-3-ylamino)propan-2-ol] | 20.4
18 | CCOc1c(S(=O)(=O)N2CCC3(CC2)C[C@@H](NC[C@H](O)COc2cccc(S(=O)(=O)C4(CO)CC4)c2)CO3)ccc2ccccc12 [Compound 301, (S)-1-((R)-8-(1-ethoxynaphthalen-2-ylsulfonyl)-1-oxa-8-azaspiro[4.5]decan-3-ylamino)-3-(3-(1-(hydroxymethyl)cyclopropylsulfonyl)phenoxy)propan-2-ol] | 357
19 | O=S(=O)(c1cnc2cccn2c1)N1CCC2(CC1)C[C@@H](NC[C@H](O)COc1cccc(S(=O)(=O)C3(CO)CC3)c1)CO2 [Compound 302, (S)-1-(3-(1-(hydroxymethyl)cyclopropylsulfonyl)phenoxy)-3-((R)-8-(pyrrolo[1,2-a]pyrimidin-3-ylsulfonyl)-1-oxa-8-azaspiro[4.5]decan-3-ylamino)propan-2-ol] | 696
20 | O=S(=O)(c1cccc(OC[C@@H](O)CN[C@H]2COC3(CCN(S(=O)(=O)c4cnc5c(c4)NCCO5)CC3)C2)c1)C1CC1 [Compound 303, (S)-1-(3-(cyclopropylsulfonyl)phenoxy)-3-((R)-8-(2,3-dihydro-1H-pyrido[2,3-b][1,4]oxazin-7-ylsulfonyl)-1-oxa-8-azaspiro[4.5]decan-3-ylamino)propan-2-ol] | 17.1
21 | COCCN1CCOc2ncc(S(=O)(=O)N3CCC4(CC3)C[C@@H](NC[C@H](O)COc3cccc(S(=O)(=O)C5CC5)c3)CO4)cc21 [Compound 304, (S)-1-(3-(cyclopropylsulfonyl)phenoxy)-3-((R)-8-(1-(2-methoxyethyl)-2,3-dihydro-1H-pyrido[2,3-b][1,4]oxazin-7-ylsulfonyl)-1-oxa-8-azaspiro[4.5]decan-3-ylamino)propan-2-ol] | 69
22 | C[C@@H]1CN(C)c2cc(S(=O)(=O)N3CCC4(CC3)C[C@@H](NC[C@H](O)COc3cccc(S(=O)(=O)C5CC5)c3)CO4)cnc2O1 [Compound 305, (S)-1-(3-(cyclopropylsulfonyl)phenoxy)-3-((R)-8-((R)-1,3-dimethyl-2,3-dihydro-1H-pyrido[2,3-b][1,4]oxazin-7-ylsulfonyl)-1-oxa-8-azaspiro[4.5]decan-3-ylamino)propan-2-ol] | 17.1
23 | CCn1cc(S(=O)(=O)N2CCC3(CC2)C[C@@H](NC[C@H](O)COc2cccc(S(=O)(=O)COC)c2)CO3)c(=O)c2ccccc21 [Compound 306, 1-ethyl-3-((R)-3-((S)-2-hydroxy-3-(3-(methoxymethylsulfonyl)phenoxy)propylamino)-1-oxa-8-azaspiro[4.5]decan-8-ylsulfonyl)quinolin-4(1H)-one] | 62.9
24 | O=S(=O)(c1cccc(OC[C@@H](O)CN[C@H]2COC3(CCN(S(=O)(=O)c4c[nH]c5ncccc45)CC3)C2)c1)C1CC1 [Compound 307, (S)-1-((R)-8-(1H-pyrrolo[2,3-b]pyridin-3-ylsulfonyl)-1-oxa-8-azaspiro[4.5]decan-3-ylamino)-3-(3-(cyclopropylsulfonyl)phenoxy)propan-2-ol] | 59.2
